Assay results published in article PMC6234229, “The role of loops B and C in determining the potentiation of GABAA receptors by midazolam” (Pharmacology Research & Perspectives, 2018).
Values joined by “and” are separate entries in the source; they are usually repeats but may differ in a detail not shown here. Equal entries are not always repeated. Where two headings read alike, the source gives them in different places.

How the values were obtained:
[1] = target: α6(P161T)β2γ2 GABAA receptor (Homo sapiens, UniProt P18507+P47870+Q16445, P180T); assay: Midazolam potentiation of EC10 GABA currents, whole-cell patch clamp, HEK293T; format: cell-based; parameters: expressed in transfected cells; host or cells: HEK293T; details: for Midazolam potentiation (%): α6(P161T)
From the text: (§1) Human (Homo sapiens) GABAA subunits (α1‐6, β2, γ2s) were subcloned into pcDNA3.1+ vectors with a cytomegalovirus (CMV) promoter. The hβ2 and hα3 sequences were humanized rat (Rattus norvegicus) cDNA with amino acid substitutions made to match the human protein sequence. The α1‐3, α5, β2, and γ2s subunits were a generous gift from Neil L. Harrison (Columbia University Medical Center, NY). The α4 subunit was obtained from GenScript (Piscataway, NJ), and the α6 subunit was a generous gift from Robert L. McDonald (Vanderbilt University, TN). All point mutations (listed in Figure 1C) were introduced using the QuikChange Lightening site‐directed mutagenesis kit (Agilent Technologies, Santa Clara, CA) according to the manufacturer's instructions and were confirmed by sequencing (Eurofins MWG Operon, Louisville, KY).
(§2) Human embryonic kidney cells containing the SV40 T‐antigen (HEK293T) were acquired from American Type Culture Collection (ATCC®, Manassas, VA), catalogue number, CRL3216. HEK293T cells were maintained at 37°C and 5% CO2 in Eagle Minimum Essential Medium (MEM) supplemented with 5% fetal bovine serum (Atlanta Biologicals Inc., Flowery Branch, GA), 40 μM L‐glutamine, 100 U/mL penicillin and 0.1 mM streptomycin. Cells were passaged regularly when they reached 70% confluency using trypsin. Cells were not passaged more than 22 times. New cells were revived from frozen stocks at passage 2‐4. Cells used for in vitro electrophysiology experiments were grown on poly‐D‐lysine‐coated glass coverslips (No.2, VWR, Radnor, PA) and transfected with X‐tremeGENE (Roche Diagnostics, Indianapolis, IN) with the desired receptor subunit cDNAs at a 1:1:1 ratio to express αxβ2γ2s receptors (2 μg total cDNA) and with 0.5 μg green fluorescent protein (GFP) as an expression marker. The γ2s incorporation into receptors was tested with zinc inhibition assays regularly.24 Patch clamp experiments were performed on cells at 24‐72 hours post‐transfection. All experiments were performed at 22°C. Experiments consisted of at least five cells recorded per day from at least two transfections across 3‐4 days to control for cell health and transfection efficiency. At least three cells expressing wild‐type receptors were recorded on days that mutant receptors were tested to provide a time‐matched expression control. All reagents were purchased from Sigma‐Aldrich (St. Louis, MO) unless otherwise stated.
(§3) Extracellular solution contained 161 mM NaCl, 3 mM KCl, 1 mM MgCl2, 1.5 mM CaCl2, 10 mM HEPES, and 6 mM D‐glucose, adjusted to pH 7.4 with NaOH (320‐330 mOsm). […] The perfusion system was controlled by protocols written in pClamp 9 (Molecular Devices, LLC., Sunnyvale, CA). Whole‐cell currents were recorded at ‐60 mV, filtered at 100 Hz and sampled at 200 Hz with a MultiClamp 700B amplifier (Molecular Devices, LLC) and DigiData 1322A (Molecular Devices, LLC) digitizer. […] Cells were recorded with the midazolam protocol no more than two times to avoid desensitization and incomplete washout or irreversible modulation.
(§4) Recordings were analyzed using MATLAB (Math Works, Inc., Natick, MA). […] The maximum peak current, EC50 and Hill coefficient were estimated for assays from each cell. When Hill parameters are estimated from whole‐cell recordings, the changes in the parameters across receptor conditions can be ascribed to the following changes in receptor physiology. Changes in maximum current can be due to changes in the single‐channel conductance or the rate of desensitization. Changes in cell surface receptor expression can cause minor changes in maximum current, but are unlikely to occur in the time course of our experimental protocol. […] More often minor changes in the Hill coefficient are attributed to the altered homogeneity in the receptor population expressed by the HEK293T cell. For example, a shallower Hill coefficient could be caused by a shift in the population of receptors from mostly αβγ receptors to a combination of both αβ and αβγ receptors.

[2] = target: α6(R100H)β2γ2 GABAA receptor (Homo sapiens, UniProt P18507+P47870+Q16445, R119H); assay: as above; format: cell-based; parameters: expressed in transfected cells; host or cells: HEK293T
From the text: as §1, §2, §3, §4

[3] = cited from earlier work

α6(R100H)β2γ2 GABAA receptor, sequence (Q16445 20-453 R119H): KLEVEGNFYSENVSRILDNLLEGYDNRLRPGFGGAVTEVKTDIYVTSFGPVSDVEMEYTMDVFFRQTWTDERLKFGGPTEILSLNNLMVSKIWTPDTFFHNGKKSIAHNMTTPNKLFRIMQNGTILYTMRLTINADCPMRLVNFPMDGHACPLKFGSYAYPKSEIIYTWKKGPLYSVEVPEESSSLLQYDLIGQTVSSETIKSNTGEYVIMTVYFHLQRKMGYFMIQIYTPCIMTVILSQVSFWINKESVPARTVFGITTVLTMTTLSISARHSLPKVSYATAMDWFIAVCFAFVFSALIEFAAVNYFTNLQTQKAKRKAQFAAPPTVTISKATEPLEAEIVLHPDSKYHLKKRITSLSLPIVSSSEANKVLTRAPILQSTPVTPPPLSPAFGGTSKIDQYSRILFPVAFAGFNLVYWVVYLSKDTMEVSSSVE
α6(R100H)β2γ2 GABAA receptor, sequence (P47870 26-474 isoform P47870-1 limits assumed, stated change not applied): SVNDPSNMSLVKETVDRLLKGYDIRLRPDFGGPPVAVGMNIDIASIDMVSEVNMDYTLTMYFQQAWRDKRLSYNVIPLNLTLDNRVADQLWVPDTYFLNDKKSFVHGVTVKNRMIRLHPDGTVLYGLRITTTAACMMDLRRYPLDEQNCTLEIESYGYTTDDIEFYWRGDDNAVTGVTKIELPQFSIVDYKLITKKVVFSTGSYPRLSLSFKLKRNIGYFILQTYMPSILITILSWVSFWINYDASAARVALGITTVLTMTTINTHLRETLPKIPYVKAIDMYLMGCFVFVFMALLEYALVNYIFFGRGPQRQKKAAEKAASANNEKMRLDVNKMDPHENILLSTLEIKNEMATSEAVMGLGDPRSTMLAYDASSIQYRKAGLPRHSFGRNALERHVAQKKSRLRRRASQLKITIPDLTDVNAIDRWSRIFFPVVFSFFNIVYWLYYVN
α6(R100H)β2γ2 GABAA receptor, sequence (P18507 40-467 isoform P18507-1 limits assumed, stated change not applied): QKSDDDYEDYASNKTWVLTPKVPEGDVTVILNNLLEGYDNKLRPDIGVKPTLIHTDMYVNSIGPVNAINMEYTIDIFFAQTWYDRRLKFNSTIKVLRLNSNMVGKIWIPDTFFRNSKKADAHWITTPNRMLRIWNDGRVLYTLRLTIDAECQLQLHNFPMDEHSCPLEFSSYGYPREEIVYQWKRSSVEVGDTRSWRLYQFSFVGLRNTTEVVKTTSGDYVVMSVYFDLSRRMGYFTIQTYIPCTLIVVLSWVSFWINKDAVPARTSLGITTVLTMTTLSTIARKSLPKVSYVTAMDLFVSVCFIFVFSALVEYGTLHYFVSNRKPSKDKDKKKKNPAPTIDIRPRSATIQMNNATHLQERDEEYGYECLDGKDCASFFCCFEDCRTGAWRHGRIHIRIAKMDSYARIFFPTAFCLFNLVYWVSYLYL
α6(P161T)β2γ2 GABAA receptor, sequence (Q16445 20-453 P180T): as the sequence (Q16445 20-453 R119H) above, with H100R, P161T counted along it
α6(P161T)β2γ2 GABAA receptor, sequence (P47870 26-474 isoform P47870-1 limits assumed, stated change not applied): as the sequence (P47870 26-474 isoform P47870-1 limits assumed, stated change not applied) above
α6(P161T)β2γ2 GABAA receptor, sequence (P18507 40-467 isoform P18507-1 limits assumed, stated change not applied): as the sequence (P18507 40-467 isoform P18507-1 limits assumed, stated change not applied) above

In the case of `Cc1ncc2n1-c1ccc(Cl)cc1C(c1ccccc1F)=NC2` [midazolam], the “Midazolam potentiation (%)” value ([1]; 10 nM MDZ + EC10 GABA) is reported as 7.52 ± 3.56%, the “Midazolam potentiation (%)” value ([1]; 50 nM MDZ + EC10 GABA) is reported as 13.89 ± 3.99% and the “Midazolam potentiation (%)” value ([1]; 100 nM MDZ + EC10 GABA) is reported as 24.46 ± 3.86%. For the same molecule, the “Midazolam potentiation (%)” value ([1]; 500 nM MDZ + EC10 GABA) was 17.25 ± 3.52%, the “Midazolam potentiation (%)” value ([1]; 1000 nM MDZ + EC10 GABA) was 16.98 ± 4.08% and the “responsiveness to midazolam potentiation” value ([1]; α6(P161T)β2γ2) was “failed to confer midazolam responsiveness”. For the same molecule, the EC50 [2] was 41.9 ± 6.02 nM, the “Midazolam potentiation (%)” value ([2]; 10 nM MDZ + EC10 GABA, α6(R100H)) was 14.39 ± 8.03% and the “Midazolam potentiation (%)” value ([2]; 50 nM MDZ + EC10 GABA, α6(R100H)) was 45.91 ± 12.95%. The “Midazolam potentiation (%)” value ([2]; 100 nM MDZ + EC10 GABA, α6(R100H)) was 71.31 ± 17.31%, the “Midazolam potentiation (%)” value ([2]; 500 nM MDZ + EC10 GABA, α6(R100H)) was 85.96 ± 19.92% and the “Midazolam potentiation (%)” value ([2]; 1000 nM MDZ + EC10 GABA, α6(R100H)) was 79.13 ± 19.87%. For the same molecule, the “Max potentiation (%)” value ([2]; α6(R100H), Hill fit, midazolam 10-1000 nM + EC10 GABA) was 93.27 ± 22.84%, the Hill coefficient ([2]; α6(R100H), midazolam Hill fit) was 2.310 ± 0.56 and the “therapeutically relevant range of midazolam measured from plasma” value ([3]; anesthetized state) was 350 ng/mL and 966 nM. For the same molecule, the “therapeutically relevant range of midazolam measured from plasma” value ([3]; postoperative drowsiness) was 75 ng/mL and 207 nM.
